The results in this text go back to patent US20250042911A1, “NOVEL BENZOPYRAN DERIVATIVE AND USE THEREOF” (SPARK BIOPHARMA, INC, priority 2021, published 2025).

Where a name gives a salt, the structure may show the parent alone.

One experiment concerns melanoma cells (B316F10). Description: Tumor growth inhibition in C57BL/6 syngeneic mouse model implanted with melanoma cells. The experiment is classed as in vivo. The note with it: 20 mg/kg orally once a day for 9 or 10 days, female C57BL/6 mice with implanted melanoma cells, tumor volume vs control group; for inhibition in vivo at 20 mg/kg: Mus musculus, po, read-out: TGI (%). As for the experimental part:
The tumor growth inhibition effect of benzopyrene derivatives was evaluated in a C57BL/6 mouse tumor model (syngeneic mouse model) in which melanoma cells (B316F10) derived from C57BL/6 mice are implanted.
After the quarantine and acclimation period was over, a cell suspension prepared with 5×10^5 cells/0.1 mL PBS was filled into a disposable syringe and administered in an amount of 0.1 mL PBS/head subcutaneously to the right back of healthy test animals (female C57BL/6, 7 weeks old) for implantation. After cell line implantation, general symptoms were observed once daily during the engraftment and growth period. Animals with no abnormalities in their health and whose tumor volume reached 50 to 100 mm^3 when measured with a digital caliper were selected. Then, based on tumor volume and body weight, the groups were separated so that the average tumor volume per group was 70 to 100 mm^3. Ten (10) animals were separated per group, and 20 mg/kg of benzopyran derivatives were administered orally once a day for 9 or 10 days. Tumor volume was measured once every 2 or 3 days.
The measured tumor volume of the test compound administered groups was compared with that of the control group and is represented in Table 2 as the tumor growth inhibition (TGI, %).

The test system of the next experiment is human M2 macrophages. Description: Inhibition of human M2 macrophage activity, hCCL22 in culture supernatant by ELISA. The experiment is classed as cell-based. To be noted: for EC50: hCCL22 secretion, THP-1 derived M2-like macrophages, compound present during 72 hours of differentiation; for inhibition at 5 µM: hML22 inhibitory activity at 5 μM. The method in brief:
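THP-1 monocytes were differentiated with 100 ng/mL PMA for 24 h, then polarized with 25 ng/mL hIL-4 plus 25 ng/mL hIL-13 for 72 h. Compounds were present throughout the 72 h polarization. CCL22 in the supernatant was quantified by ELISA to give inhibition or EC50.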
A general note: ELISA stands for enzyme-linked immunosorbent assay.

Broadly, the EC50 is the concentration that produces a half-maximal response. A low value points to an effect from little substance. In the case of `CC(=O)C(=O)N1CCN(C(=O)Oc2ccc3c(c2)OC(C)(C)C2=CCn4c(=O)n(-c5ccc(C(C)=O)cc5)c(=O)n4C23)CC1` (stereo not shown) [Example 68, 2-(4-acetylphenyl)-7,7-dimethyl-1,3-dioxo-2,3,5,12b-tetrahydro-1H,7H-chromeno[4,3-c][1,2,4]triazolo[1,2-a]pyridazin-10-yl 4-(2-oxopropanoyl)piperazine-1-carboxylate], the inhibition in vivo at 20 mg/kg with melanoma cells (B316F10) was in the range of 25 to 66%. The same compound returned an EC50 in the experiment with human M2 macrophages of 74.7 µM. The corresponding values for `CC1(C)Oc2cc(N3CCCC3)ccc2C2C1=CCn1c(=O)n(-c3ccc(C(=O)O)cc3)c(=O)n12` (stereo not shown) [Example 44, 4-(7,7-dimethyl-1,3-dioxo-10-(pyrrolidin-1-yl)-5,12b-dihydro-1H,7H-chromeno[4,3-c][1,2,4]triazolo[1,2-a]pyridazin-2(3H)-yl)benzoic acid] are 25 to 66% and 9.5 µM.

Consider `CC(=O)c1ccc(-n2c(=O)n3n(c2=O)C2C(=CC3)C(C)(C)Oc3cc(OP(=O)(O)O)ccc32)cc1` (stereo not shown) [Example 69, 2-(4-acetylphenyl)-7,7-dimethyl-1,3-dioxo-2,3,5,12b-tetrahydro-1H,7H-chromeno[4,3-c][1,2,4]triazolo[1,2-a]pyridazin-10-yl dihydrogen phosphate], for which, in the experiment with melanoma cells (B316F10), the inhibition in vivo at 20 mg/kg was 25 to 66%. For the compound `CC(=O)c1ccc(-n2c(=O)n3n(c2=O)C2C(=CC3)C(C)(C)Oc3cc(OC(=O)N(C)CCC(=O)O)ccc32)cc1` (stereo not shown) [Example 92, sodium 3-((((2-(4-acetylphenyl)-7,7-dimethyl-1,3-dioxo-2,3,5,12b-tetrahydro-1H,7H-chromeno[4,3-c][1,2,4]triazolo[1,2-a]pyridazin-10-yl)oxy)carbonyl)(methyl)amino)propanoate], the “TGI (%)” value in the experiment with melanoma cells (B316F10) worked out at 25.5%. As to `COCCOCCOCCOCCOC(=O)Oc1ccc2c(c1)OC(C)(C)C1=CCn3c(=O)n(-c4ccc(C(C)=O)cc4)c(=O)n3C12` (stereo not shown) [Example 75, 2-(4-acetylphenyl)-7,7-dimethyl-1,3-dioxo-2,3,5,12b-tetrahydro-1H,7H-chromeno[4,3-c][1,2,4]triazolo[1,2-a]pyridazin-10-yl (2,5,8,11-tetraoxatridecan-13-yl) carbonate], the inhibition in vivo at 20 mg/kg with melanoma cells (B316F10) turned out to be 25.5%.

Consider `CC(=O)c1ccc(-n2c(=O)n3n(c2=O)C2C(=CC3)C(C)(C)Oc3cc(OC(=O)CN(C)C)ccc32)cc1` (stereo not shown) [Example 72, 2-(4-acetylphenyl)-7,7-dimethyl-1,3-dioxo-2,3,5,12b-tetrahydro-1H,7H-chromeno[4,3-c][1,2,4]triazolo[1,2-a]pyridazin-10-yl dimethylglycinate hydrochloride], for which the inhibition in vivo at 20 mg/kg in the experiment with melanoma cells (B316F10) was 25 to 66%. The compound further had an EC50 with human M2 macrophages of 4.7 µM. Take `CC(=O)Oc1ccc2c(c1)OC(C)(C)C1=CCn3c(=O)n(-c4ccc(C(C)=O)cc4)c(=O)n3C12` (stereo not shown) [Example 60, 2-(4-acetylphenyl)-7,7-dimethyl-1,3-dioxo-2,3,5,12b-tetrahydro-1H,7H-chromeno[4,3-c][1,2,4]triazolo[1,2-a]pyridazin-10-yl acetate]: the inhibition in vivo at 20 mg/kg with melanoma cells (B316F10) is 56.5%. On to `CCN(c1ccc2c(c1)OC(C)(C)C1=CCn3c(=O)n(-c4ccc(C(C)=O)cc4)c(=O)n3C12)C(C)C` (stereo not shown) [Example 46, 2-(4-acetylphenyl)-10-(ethyl(isopropyl)amino)-7,7-dimethyl-5,12b-dihydro-1H,7H-chromeno[4,3-c][1,2,4]triazolo[1,2-a]pyridazine-1,3(2H)-dione], for which the inhibition in vivo at 20 mg/kg in the experiment on melanoma cells (B316F10) was in the range of 25 to 66%. The compound also displayed a concentration giving a half-maximal response (EC50) in the experiment with human M2 macrophages of 7 µM. Taken in the same sequence, the figures for `CC(=O)c1ccc(-n2c(=O)n3n(c2=O)C2C(=CC3)C(C)(C)Oc3cc(OC(=O)N(C)C)ccc32)cc1` (stereo not shown) [Example 62, 2-(4-acetylphenyl)-7,7-dimethyl-1,3-dioxo-2,3,5,12b-tetrahydro-1H,7H-chromeno[4,3-c][1,2,4]triazolo[1,2-a]pyridazin-10-yl dimethylcarbamate] were 32.3% and 41.3 µM.

As for `CC(=O)c1ccc(-n2c(=O)n3n(c2=O)C2C(=CC3)C(C)(C)Oc3cc(OC(=O)[C@@H](N)CC(C)C)ccc32)cc1` (stereo partly drawn) [Example 81, 2-(4-acetylphenyl)-7,7-dimethyl-1,3-dioxo-2,3,5,12b-tetrahydro-1H,7H-chromeno[4,3-c][1,2,4]triazolo[1,2-a]pyridazin-10-yl L-leucinate 2,2,2-trifluoroacetic acid], the inhibition in vivo at 20 mg/kg with melanoma cells (B316F10) fell in the range of 25 to 66%. Take `COCCOC(=O)Oc1ccc2c(c1)OC(C)(C)C1=CCn3c(=O)n(-c4ccc(C(C)=O)cc4)c(=O)n3C12` (stereo not shown) [Example 73, 2-(4-acetylphenyl)-7,7-dimethyl-1,3-dioxo-2,3,5,12b-tetrahydro-1H,7H-chromeno[4,3-c][1,2,4]triazolo[1,2-a]pyridazin-10-yl (2-methoxyethyl) carbonate]: the inhibition in vivo at 20 mg/kg in the experiment with melanoma cells (B316F10) amounted to 31%. As to `CC(=O)c1ccc(-n2c(=O)n3n(c2=O)C2C(=CC3)C(C)(C)Oc3cc(OC(=O)N4CCN(C(=O)[C@@H]5CCCN5)CC4)ccc32)cc1` (stereo partly drawn) [Example 82, 2-(4-acetylphenyl)-7,7-dimethyl-1,3-dioxo-2,3,5,12b-tetrahydro-1H,7H-chromeno[4,3-c][1,2,4]triazolo[1,2-a]pyridazin-10-yl 4-(L-prolyl)piperazine-1-carboxylate hydrochloride], the inhibition in vivo at 20 mg/kg in the experiment on melanoma cells (B316F10) is 66.3%. The same compound displayed an EC50 with human M2 macrophages of 68.6 µM.

With `CC(=O)c1ccc(-n2c(=O)n3n(c2=O)C2C(=CC3)C(C)(C)Oc3cc(OC(=O)N(C)CCC(=O)O)ccc32)cc1` (stereo not shown) [Example 91, 3-((((2-(4-acetylphenyl)-7,7-dimethyl-1,3-dioxo-2,3,5,12b-tetrahydro-1H,7H-chromeno[4,3-c][1,2,4]triazolo[1,2-a]pyridazin-10-yl)oxy)carbonyl)(methyl)amino)propanoic acid], the inhibition in vivo at 20 mg/kg in the experiment with melanoma cells (B316F10) lay in the range of 25 to 66%.

Turning to `CC(=O)c1ccc(-n2c(=O)n3n(c2=O)C2C(=CC3)C(C)(C)Oc3cc(OC(=O)N4CCCC4)ccc32)cc1` (stereo not shown) [Example 74, 2-(4-acetylphenyl)-7,7-dimethyl-1,3-dioxo-2,3,5,12b-tetrahydro-1H,7H-chromeno[4,3-c][1,2,4]triazolo[1,2-a]pyridazin-10-yl pyrrolidine-1-carboxylate], the inhibition in vivo at 20 mg/kg in the experiment on melanoma cells (B316F10) fell in the range of 25 to 66%. As a reminder, the inhibition is the share of the control response that was lost under treatment. A higher inhibition goes with a strong effect. Turning to `CC(=O)c1ccc(-n2c(=O)n3n(c2=O)C2C(=CC3)C(C)(C)Oc3c2cc(Br)c(N)c3Br)cc1` (stereo not shown) [Example 28, 2-(4-acetylphenyl)-10-amino-9,11-dibromo-7,7-dimethyl-5,12b-dihydro-1H,7H-chromeno[4,3-c][1,2,4]triazolo[1,2-a]pyridazine-1,3(2H)-dione], the inhibition at 5 µM in the experiment on human M2 macrophages (Macrophage, 72 hours) came out at 71.2%.

As to `CC(=O)c1ccc(-n2c(=O)n3n(c2=O)C2C(=CC3)C(C)(C)Oc3cc(OP(=O)(O)O)ccc32)cc1` (stereo not shown) [Example 70, disodium 2-(4-acetylphenyl)-7,7-dimethyl-1,3-dioxo-2,3,5,12b-tetrahydro-1H,7H-chromeno[4,3-c][1,2,4]triazolo[1,2-a]pyridazin-10-yl phosphate], the “TGI (%)” value in the experiment on melanoma cells (B316F10) (phosphate) is given as 26.2%. The EC50 in the experiment on human M2 macrophages is 9.4 µM. The compound `CN(C)C(=O)Oc1ccc2c(c1)OC(C)(C)C1=CCn3c(=O)n(-c4ccc(C(C)(C)C)cc4)c(=O)n3C12` (stereo not shown) [Example 147, 2-(4-(tert-butyl)phenyl)-7,7-dimethyl-1,3-dioxo-2,3,5,12b-tetrahydro-1H,7H-chromeno[4,3-c][1,2,4]triazolo[1,2-a]pyridazin-10-yl dimethylcarbamate] yielded an EC50 in the experiment with human M2 macrophages above 80 µM. On to `CN(C)C(=O)Oc1ccc2c(c1)OC(C)(C)C1=CCn3c(=O)n(-c4ccc(C(F)(F)F)cc4)c(=O)n3C12` (stereo not shown) [Example 145, 7,7-dimethyl-1,3-dioxo-2-(4-(trifluoromethyl)phenyl)-2,3,5,12b-tetrahydro-1H,7H-chromeno[4,3-c][1,2,4]triazolo[1,2-a]pyridazin-10-yl dimethylcarbamate], for which, in the experiment on human M2 macrophages, the EC50 was found to be 77.3 µM. In the experiment on human M2 macrophages (Macrophage, hCCL22 inhibitory activity at 10 μM, 72 hours), `CC(=O)c1ccc(-n2c(=O)n3n(c2=O)C2C(=CC3)C(C)(C)Oc3cc(NC(C)(C)C)ccc32)cc1` (stereo not shown) [Example 30, 2-(4-acetylphenyl)-10-(tert-butylamino)-7,7-dimethyl-5,12b-dihydro-1H,7H-chromeno[4,3-c][1,2,4]triazolo[1,2-a]pyridazine-1,3(2H)-dione] returned an inhibition at 10 µM of 97.3%. The compound also displayed a 50% effective concentration (EC50) with human M2 macrophages of 4.3 µM. Regarding `CC(=O)c1ccc(-n2c(=O)n3n(c2=O)C2C(=CC3)C(C)(C)Oc3cc(O)c(OC(F)(F)F)cc32)cc1` (stereo not shown) [Example 25, 2-(4-acetylphenyl)-10-hydroxy-7,7-dimethyl-11-(trifluoromethoxy)-5,12b-dihydro-1H,7H-chromeno[4,3-c][1,2,4]triazolo[1,2-a]pyridazine-1,3(2H)-dione], the inhibition at 5 µM in the experiment on human M2 macrophages (Macrophage, 72 hours) was found to be 42%.
